Reference: patent US11857638B2, “Quinone-containing conjugates” (PROMEGA CORPORATION, priority 2018, dated 2024)

Key:
[1] = biological target: human diaphorase (Homo sapiens, UniProt P15559); assay: Non-cellular reductive release of luciferin (luciferin detection reagent with reductase and NADH); type: biochemical; conditions: after 1 hour, FIG. 3
Text: (§1) This property may provide an additional advantage in ADCs where it is critical that payload is not released outside of target cells. The observations are as follows. When D-luciferin is derivatized on the 6′ hydroxyl by addition of the TMQ linker, its activity as a substrate for luciferase is blocked (PBI-4312), but free D-luciferin that is fully active with luciferase is readily released
[drawing 143] from a luciferin-TMQ derivative when subjected to reducing conditions inside or outside of a cell. However, release of D-luciferin from a protein-TMQ-luciferin conjugate by an extracellular reductive mechanism was substantially diminished compared to luciferin-TMQ. In other words, the protein moiety of the conjugate stabilizes the luciferin payload against reductive release from the TMQ linker in a non-cellular environment. Non-cellular reducing conditions include an aqueous reducing agent solution (e.g. DTT) or a reductase reaction mixture (FIG. 3). This was true for two conjugates with a luciferin payload as well as a luciferin-TMQ conjugate with bovine serum albumin (BSA). Whereas the reaction conditions produced substantial amounts of light with PBI-4312 (>900,000 RLU after 1 hour), only minimal signals were produced from similar amounts of the protein conjugates (<800 RLUs after 1 hour). […]

[2] = tested on: luciferase; assay: Activity as a substrate for luciferase; type: biochemical; conditions: D-luciferin derivatized on the 6′ hydroxyl with TMQ linker
Text: as §1

human diaphorase, sequence (P15559 whole entry): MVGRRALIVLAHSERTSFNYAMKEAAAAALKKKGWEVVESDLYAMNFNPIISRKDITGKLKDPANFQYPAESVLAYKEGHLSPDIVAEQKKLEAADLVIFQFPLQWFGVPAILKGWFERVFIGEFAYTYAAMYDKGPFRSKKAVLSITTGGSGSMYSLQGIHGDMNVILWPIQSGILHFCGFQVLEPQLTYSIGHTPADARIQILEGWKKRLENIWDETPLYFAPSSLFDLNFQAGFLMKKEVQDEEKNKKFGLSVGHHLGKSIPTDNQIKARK

CC1=C(C)C(=O)C(C(C)(C)CC(=O)N(C)CCN(C)C(=O)Oc2ccc3nc(C4=N[C@@H](C(=O)O)CS4)sc3c2)=C(C)C1=O [PBI-4312]
light produced (luciferin luminescence) [1]: > 900,000 RLU
activity as a substrate for luciferase [2]: blocked
